Experimental data as given in patent US9650399B2, “Salicylic acid derivatives, pharmaceutically acceptable salt thereof, composition thereof and method of use thereof” (The Governing Council of the University of Toronto, priority 2012, dated 2017).
“Also recorded” adds a separate entry of the source. Like-named read-outs stand apart in the source and are kept apart here.

Tests used:
[1] = tested on: BTSC68EF; assay: alamarBlue cell viability, BTSC 68EF; assay type: cell-based, human; conditions: Homo sapiens, read-out: 68EF IC50 (μM)
Method in brief: (§1)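 Patient-derived GBM brain tumour stem cells, dissociated spheres seeded at 1500 cells/96-well, or 3000 cells/96-well in one setup. Drug or DMSO vehicle added one day after plating. Viability read by alamarBlue after 72 hrs, triplicate wells.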

[2] = tested on: BTSC73M; assay: alamarBlue cell viability, BTSC 73M; assay type: cell-based, human; conditions: Homo sapiens
Method in brief: as §1

[3] = tested on: BTSCs; assay: alamarBlue cytotoxicity across BTSC lines; assay type: cell-based, human; conditions: Homo sapiens; for EC50: read-out: EC50s across all 8 BTSCs evaluated; for IC50: read-out: IC50 values of the top four ranked compounds against BTSCs
Protocol: First, the library was screened for biological activity against a set of three representative GBM BTSCs derived from GBM patients, including the very aggressive GBM BTSC lines, BTSC73M, BTSC30M, BTSC68EF. Dissociated BTSC spheres were seeded at 1500 cells/96-well and treated with drug compound or vehicle (DMSO) one day after plating. Cell viability following drug treatment was assessed after 72 hrs using the ALAMARBLUE™ assay (Invitrogen) according to the manufacturer's instructions. All culture experiments were performed in triplicate with a minimum of three wells per condition.
BTSC spheres were dissociated to single cells with the enzyme Accumax (Innovative Technologies), seeded at 1500 cells/96-well and treated with drug or vehicle (DMSO) one day after plating. […] BTSC spheres were dissociated to single cells as above and plated in 96 well plates in triplicate at 3000 cells/96-well. […] Cell viability following drug treatment was assessed three days later using the ALAMARBLUE™ assay (Invitrogen) according to the manufacturer's instructions. All culture experiments were performed in triplicate with a minimum of three wells per condition.

[4] = tested on: normal human fetal astrocytes (HF 2003, HF 2006, HF 2009, HF 2013); assay: toxicity in normal human fetal astrocytes; assay type: cell-based; conditions: concentrations of up to 5 μM
Protocol: Given the nM cytoxicity, these compounds were assayed for biological effects in healthy cells.
GBM BTSCs were cultured from a series of tumor specimens obtained following informed consent from adult GBM patients during their operative procedure as previously described (Kelly et al, Stem Cells 2009) and approved by the University of Calgary Ethics Review Board. Briefly, BTSC cultures were initiated in serum-free defined culture medium (SFM) and gave rise to nonadherent spheres after 7 to 21 days in culture. Primary tumor spheres were expanded for several passages and then cryopreserved in 10% DMSO (Sigma Aldrich) in serum-free defined medium until use in experiments. Human fetal neural stem cells were also cultured as previously described and induced to differentiate into astrocytes by addition of 10% fetal bovine serum and removal of EGF, FGF-2 and heparan sulfate.

[5] = tested on: pSTAT3 (Y705); assay: Western blot of phosphorylated STAT3 in BTSCs; assay type: cell-based, human; conditions: for suppression of pSTAT3 (Y705): 1 μM
Excerpt: Blots were stained with antibodies: phospho-Y705, phospho-S727, Bcl-xL, cyclin D1, PARP and Actin. Bands were visualized with the ECL PLUS™ Western Blotting Detection System and […]™ (Amersham). […] BTSC spheres were lysed in modified RIPA buffer supplemented with Complete Mini protease (Roche) and Halt phosphatase (Thermo Scientific) inhibitor cocktails. […] Blots were stained with the following antibodies: phospho-STAT3 Y705 (1:1000, Cell Signalling Technology), phospho-STAT3 S727 (1:1000, Cell Signalling Technology), STAT3 (1:1000, Santa Cruz Biotechnology), Bcl-xL (1:1000, Cell Signalling Technology), cyclin D1 (1:1000, Cell Signalling Technology) PARP (1:1000, Cell Signalling Technology) and Actin (1:2500, Santa Cruz Biotechnology). HRP conjugated secondary antibodies, goat anti-rabbit (Cell Signalling Technology) were used at 1:2000 and donkey anti-mouse, donkey anti-goat, and goat anti-rabbit, (Calbiochem) were used at 1:6000. Bands were visualized with the ECL Plus Western Blotting Detection System and Hyperfilm (Amersham).

[6] = target: T1, ERK1 (Homo sapiens, UniProt P27361); assay: HotSpot radiometric kinase assay, ERK1; assay type: biochemical; conditions: 5 uM compound, 10 μM ATP, duplicate (Data 1, Data 2); for remaining activity at 5 µM: read-out: % Enzyme activity relative to DMSO (control), ERK1
T1 construct: purchased Reaction Biology Corporation
T1 sequence (P27361 whole entry): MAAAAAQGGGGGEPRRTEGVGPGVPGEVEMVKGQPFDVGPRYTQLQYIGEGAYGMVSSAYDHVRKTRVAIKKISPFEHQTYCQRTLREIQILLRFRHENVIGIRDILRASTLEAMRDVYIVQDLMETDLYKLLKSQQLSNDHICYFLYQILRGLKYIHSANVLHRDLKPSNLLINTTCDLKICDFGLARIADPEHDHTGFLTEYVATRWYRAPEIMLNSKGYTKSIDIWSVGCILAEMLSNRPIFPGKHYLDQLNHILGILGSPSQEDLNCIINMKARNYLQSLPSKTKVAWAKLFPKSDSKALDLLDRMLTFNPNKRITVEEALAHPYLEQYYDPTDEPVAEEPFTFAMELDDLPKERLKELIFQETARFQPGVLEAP

[7] = target: T2, JAK1 (Homo sapiens, UniProt P23458); assay: HotSpot radiometric kinase assay, JAK1; assay type: biochemical; conditions: 5 uM compound, 10 μM ATP, duplicate (Data 1, Data 2); for remaining activity at 5 µM: read-out: % Enzyme activity relative to DMSO (control), JAK1
T2 construct: purchased Reaction Biology Corporation
T2 sequence (P23458 whole entry): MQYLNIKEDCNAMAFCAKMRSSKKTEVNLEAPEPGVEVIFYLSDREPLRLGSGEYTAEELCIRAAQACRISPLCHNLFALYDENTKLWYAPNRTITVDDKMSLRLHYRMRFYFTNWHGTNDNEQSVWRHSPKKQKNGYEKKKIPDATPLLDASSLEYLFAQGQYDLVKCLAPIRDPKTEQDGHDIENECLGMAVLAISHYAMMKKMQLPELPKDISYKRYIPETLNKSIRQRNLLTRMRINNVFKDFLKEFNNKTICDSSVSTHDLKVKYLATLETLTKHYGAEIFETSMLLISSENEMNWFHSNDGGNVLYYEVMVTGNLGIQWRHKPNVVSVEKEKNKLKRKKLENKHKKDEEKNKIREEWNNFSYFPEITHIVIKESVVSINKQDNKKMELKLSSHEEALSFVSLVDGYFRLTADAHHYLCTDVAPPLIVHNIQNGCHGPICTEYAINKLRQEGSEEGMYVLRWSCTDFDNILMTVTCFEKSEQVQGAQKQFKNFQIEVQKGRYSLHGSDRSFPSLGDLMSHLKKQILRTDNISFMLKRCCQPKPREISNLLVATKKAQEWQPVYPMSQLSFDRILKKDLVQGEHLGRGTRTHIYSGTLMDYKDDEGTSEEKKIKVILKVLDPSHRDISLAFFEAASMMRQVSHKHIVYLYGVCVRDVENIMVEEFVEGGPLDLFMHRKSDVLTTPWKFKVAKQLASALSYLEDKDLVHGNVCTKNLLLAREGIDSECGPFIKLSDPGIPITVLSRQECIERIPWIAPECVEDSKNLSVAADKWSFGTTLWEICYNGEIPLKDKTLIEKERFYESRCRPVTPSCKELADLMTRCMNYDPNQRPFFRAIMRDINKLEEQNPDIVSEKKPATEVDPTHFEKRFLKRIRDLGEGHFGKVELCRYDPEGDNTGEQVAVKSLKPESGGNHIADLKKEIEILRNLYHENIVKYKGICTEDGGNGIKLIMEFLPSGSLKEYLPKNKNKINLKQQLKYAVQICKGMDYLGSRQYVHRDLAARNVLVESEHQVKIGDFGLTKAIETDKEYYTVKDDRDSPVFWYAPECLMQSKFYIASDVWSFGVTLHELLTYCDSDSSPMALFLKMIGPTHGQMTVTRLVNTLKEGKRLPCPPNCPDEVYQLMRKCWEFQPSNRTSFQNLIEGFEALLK
Protocol: (§2) Briefly, this assay employs a radiometric detection system to measure kinase phosphoryl transfer activity.
(§3) Test compound was evaluated at a single dose of 5 μM in duplicate mode. […] Reactions were carried out at 10 μM ATP.
(§4) Preliminary screen against AKT, c-Src, ERK1, JaK1 and JaK2 was performed at Reaction Biology Corporation (www.reactionbiology.com, Malvern, Pa.) using the “HotSpot” assay platform. Specific kinase/substrate pairs along with their required cofactors were prepared in reaction buffer; 20 mM Hepes pH 7.5, 10 mM MgCl2, 1 mM EGTA, 0.02% Brij35, 0.02 mg/ml BSA, 0.1 mM Na3VO4, 2 mM DTT, 1% DMSO. The screen was completed in duplicate at a single concentration of 5 μM. The reaction well with the subject compound was treated with a mixture of ATP (Sigma, St. Louis Mo.) and ^33P ATP (Perkin Elmer, Waltham Mass.) to a final concentration of 10 μM. […] Reaction wells were kept at room temperature for 120 minutes, followed by spotting each of the reactions onto P81 ion exchange filter paper (Whatman Inc., Piscataway, N.J.). […] Background was subtracted using control reactions and the kinase activity data was expressed as the percent remaining kinase activity in test samples compared to vehicle (dimethyl sulfoxide) reactions. All IC50 values (table 3) and curve fitting were produced using Prism (GraphPad Software) (FIG. 5).

[8] = target: T3, JAK2 (Homo sapiens, UniProt O60674); assay: HotSpot radiometric kinase assay, JAK2; assay type: biochemical; conditions: 5 uM compound, 10 μM ATP, duplicate (Data 1, Data 2); for remaining activity at 5 µM: read-out: % Enzyme activity relative to DMSO (control), JAK2
T3 construct: purchased Reaction Biology Corporation
T3 sequence (O60674 whole entry): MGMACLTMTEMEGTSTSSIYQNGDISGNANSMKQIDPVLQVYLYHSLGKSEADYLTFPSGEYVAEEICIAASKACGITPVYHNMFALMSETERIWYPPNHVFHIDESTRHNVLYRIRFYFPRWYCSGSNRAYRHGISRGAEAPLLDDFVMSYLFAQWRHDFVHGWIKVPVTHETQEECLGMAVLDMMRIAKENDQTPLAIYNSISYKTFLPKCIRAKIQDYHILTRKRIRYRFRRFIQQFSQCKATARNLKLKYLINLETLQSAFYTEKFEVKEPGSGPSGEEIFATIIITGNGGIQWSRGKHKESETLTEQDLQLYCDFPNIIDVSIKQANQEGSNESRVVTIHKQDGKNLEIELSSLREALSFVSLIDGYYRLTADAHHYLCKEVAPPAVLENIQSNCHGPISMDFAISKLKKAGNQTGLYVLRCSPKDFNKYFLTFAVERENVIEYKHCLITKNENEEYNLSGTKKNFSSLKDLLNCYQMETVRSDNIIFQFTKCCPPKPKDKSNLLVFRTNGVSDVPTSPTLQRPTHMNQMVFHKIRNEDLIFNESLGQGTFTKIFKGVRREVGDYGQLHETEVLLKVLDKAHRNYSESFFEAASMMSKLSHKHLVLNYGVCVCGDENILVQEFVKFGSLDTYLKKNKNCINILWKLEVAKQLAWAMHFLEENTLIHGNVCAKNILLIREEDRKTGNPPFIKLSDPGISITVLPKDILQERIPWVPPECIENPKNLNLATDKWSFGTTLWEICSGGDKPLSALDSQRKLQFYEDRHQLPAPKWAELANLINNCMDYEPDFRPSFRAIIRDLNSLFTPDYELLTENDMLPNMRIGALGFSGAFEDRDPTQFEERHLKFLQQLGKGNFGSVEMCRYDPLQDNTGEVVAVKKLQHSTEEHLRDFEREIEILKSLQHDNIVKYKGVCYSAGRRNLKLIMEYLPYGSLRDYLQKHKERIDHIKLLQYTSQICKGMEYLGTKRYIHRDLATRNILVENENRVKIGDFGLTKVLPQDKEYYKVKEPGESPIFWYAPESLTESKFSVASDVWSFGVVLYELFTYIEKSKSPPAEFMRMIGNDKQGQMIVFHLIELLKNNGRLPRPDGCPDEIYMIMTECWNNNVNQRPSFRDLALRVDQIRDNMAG
Protocol: as §2, §3, §4

[9] = tested on: Breast cancer cells (MDA-MB-468); assay: IC50 in breast cancer cells; assay type: cell-based; conditions: Homo sapiens, Table 6
[10] = tested on: Prostate (DU145); assay: IC50 in prostate cancer cells; assay type: cell-based; conditions: Homo sapiens, DU-145; Table 6
[11] = tested on: leukemia cancer cells (AML-2); assay: IC50 in leukemia cancer cells; assay type: cell-based; conditions: Table 6
[12] = remaining activity, listed as SH-05-07

Row | Compound | IC50 [1] [µM] | IC50 ([2]; Table 2, BTSC 73M, alamarBlue, 72 hrs, read-out: IC50 (μM) 73M) [µM] | IC50 ([2]; Table 4 library screen, alamarBlue, read-out: 73M IC50) [µM] | EC50 [3] [nM] | IC50 [3] [nM] | toxicity in normal human cells [4] | pSTAT3 inhibition potency ([5]; 0, 0.1, 0.5, 1.0 and 5.0 μM, Western blot) | pSTAT3 signalling ([5]; 500 nM, Western blot, BTSCs) | suppression of pSTAT3 (Y705) ([5]; Western blot, BTSCs) | pSTAT3 suppression, comparative Western blot ([5]; BTSC 73M, 1 μM inhibitor) | remaining activity at 5 µM [6] [%] | remaining activity at 5 µM [7] [%] | remaining activity at 5 µM [8] [%] | IC50 [9] [nM] | IC50 [10] [nM] | IC50 [11] [nM] | IC50 ([2]; read-out: 73M IC50 (μM)) [µM] | % Enzyme activity relative to DMSO (control), ERK1 [6, 12] [%] | % Enzyme activity relative to DMSO (control), JAK1 [7, 12] [%] | % Enzyme activity relative to DMSO (control), JAK2 [8, 12] [%]
1 | CN(CC(=O)N(Cc1ccc(C2CCCCC2)cc1)c1ccc(C(=O)O)cc1)S(=O)(=O)c1c(F)c(F)c(F)c(F)c1F [Compound 31, 4-(N-(4-cyclohexylbenzyl)-2-(2,3,4,5,6-pentafluoro-N-methylphenylsulfonamido)acetamido)benzoic acid] | 0.531 | 1.03 ± 0.031 | 1.03 | 66 to 1140 | 100 to 3800 | minimal toxicity; also recorded: no toxicity | concentration-dependant decreases in pSTAT3 levels | completely silenced pSTAT3 signalling | most suppression of pSTAT3 (Y705) | equipotent pSTAT3 suppression | 111 | 101 | 62 | < 1000 | 11300 | < 1000 |  |  |  | 
2 | CN(CC(=O)N(Cc1ccc(C2CCCCC2)cc1)c1ccc(C(=O)NO)cc1)S(=O)(=O)c1c(F)c(F)c(F)c(F)c1F [Compound 32, 4-(N-(4-cyclohexylbenzyl)-2-(2,3,4,5,6-pentafluoro-N-methylphenylsulfonamido)acetamido)-N-hydroxybenzamide] | ~1.01 |  |  | 66 to 1140 | 100 to 3800 | minimal toxicity |  |  | most suppression of pSTAT3 (Y705) |  | 110 | 101 | 67.1 | < 1000 | 15900 | < 1000 | 1.52 | 106.21 | 97.99 | 61.26
